Data as given in paper PMC6316070 (Marine Drugs, 2018).

Assays:
Conditions in all cases: human
in vitro [1] = experiment: in vitro
Experimental: (§1) The in vitro cytotoxic effects of the novel compounds 1, 8, and 9 were evaluated on five human cancer cell lines using the MTT (3-(4,5-dimethylthiazol-2-yl)-2,5-diphenyltetrazolium bromide) method [32, 33, 34]. […] All cells were cultured in RPMI-1640 medium containing 10% fetal bovine serum (FBS), and kept in a humidified atmosphere containing 5% CO2 at 37 °C. […] In brief, the cell suspensions (200 μL, 5 × 10^4 cells/mL) were seeded into 96-well culture plates and kept at 37 °C for 12 h, then the sample solvents (20 μL) were added into each well and further cultured at 37 °C for 24 h. Subsequently, MTT (100 μg) was added into each well and incubated at 37 °C for 4 h. After removal of the 100 μL culture medium, the cells were lysed with 20% SDS-50% DMF (100 μL). The remaining lysates were subjected to measurements of the optical density at 595 nm with a 96-well microtiter plate reader. Reed and Muench’s method was used to calculate IC50 values [32].

in vitro [2] = experiment: in vitro; remark: listed apart in the source
Experimental: as §1

in vitro [3] = experiment: in vitro; remark: listed apart in the source
Experimental: as §1

in vitro [4] = experiment: in vitro; remark: listed apart in the source
Experimental: as §1

in vitro [5] = experiment: in vitro; remark: listed apart in the source
Experimental: as §1

Measured: IC50

CC(=O)OCC(C)=CCCC(C)(O)C1CCC(C)(O)C1C (stereo not shown) [Compound 8, Cyclonerodiol C]
> 40 µM: all assays above

CC1C(C(C)(O)CC=CC(C)(C)O)CCC1(C)O (stereo not shown) [Compound 9, Cyclonerodiol D]
> 40 µM: all assays above
